This is an account of results in patent publication US11957682B2, “Compounds and methods for regulating, limiting, or inhibiting AVIL expression” (University of Virginia Patent Foundation, priority 2017, dated 2024).

The subject of data set [1] is GBM lines (U87, A172, U251, and T98G). Kind of data set: Cellular assays using GBM cell lines and immortalized astrocytes. The class given is cell-based, human. Conditions: four GBM lines (U87, A172, U251, T98G) versus astrocytes. The protocol:
(§1) Cell Culture. The rhabdomyosarcoma cell lines RH30, RH18, and RD were cultured in RPMI-1640 medium with 10% FBS. RH18 was a gift from Dr. P. J. Houghton. Glioblastoma cell line U87 cells were cultured in Minimum Essential Medium Eagle (MEM), supplemented with 1 mM sodium pyruvate, 1% nonessential amino acids, 0.15% sodium bicarbonate, and 10% fetal bovine serum (FBS); T98G cells were cultured in MEM with 10% FBS; A172 cells were cultured in Dulbecco's modified Eagle's medium (DMEM) with 4.5 g/L glucose, and supplemented with 10% FBS; U251 cells were cultured in Roswell Park Memorial Institute medium with 5% FBS. Immortalized human astrocytes (a kind gift from Dr. Russ Pieper, University of California San Francisco) were grown in DMEM/F12 with 4.5 g/L of glucose, supplemented with 10% FBS. All cells were grown at 37° C. in 5% CO2-[…]. All cell lines unless specified were originally obtained from ATCC. They were not further authenticated.
To investigate whether AVIL is a viable drug target, a platform of small-molecule microarray was utilized (Bradner et al., 2006a; Bradner et al., 2006b) in order to identify compounds that interact with the AVIL protein. 50,000 small molecules were screened with recombinant advillin protein, including commercially available compounds, products of diversity-oriented synthesis, and known bioactive compounds. From these compounds, 82 advillin-interacting compounds were identified (FIG. 7A). […] Pubchem ID for the three compounds are as follows: Compound A is CID 56750508, Compound B is CID 56890068, and Compound C is CID 70768068.

The subject of data set [2] is astrocyte cells (non-cancer control). Put plainly: IC50 for inhibiting cell growth in astrocyte cells (non-cancer control). The data set is classed as cell-based, human. Conditions: inhibition of cell growth. The method, then: as §1
(§2) In this example, samples of glioblastoma cells (U87) and astrocyte cells (non-cancer control) were exposed various disclosed compounds to determine the effectiveness of the compounds for inhibiting cell growth.

Data set [3] relates to U87 xenograft. Put plainly: U87 xenograft model, intra-tumor injection. The data set is classed as in vivo, NIH-III Nude mice. The method, then:
Astrocytes stably expressing AVIL or an empty vector were injected subcutaneously into the flanks of NIH-III Nude mice. Around 2 million cells were used per injection. The animals were monitored twice a week. For drug treatment, 1.5 million U87 cells were injected subcutaneously into the flanks of NIH-III Nude mice. Compound 56750508 was dissolved in 50% DMSO, 15% ethanol, and 35% water. After tumors became visible (around 2 weeks), 50 ul drug solution or solvent was injected intra-tumorly. Three injections were performed with two day intervals.
(§3) The effect of the three compounds on LIN28B expression was tested. […] To test whether the compounds can trigger transcriptome response similar to siAVIL, a microarray analysis of the U87 cells treated with these compounds was performed. Strikingly, cells treated with all three compounds had similar transcriptome profiles when compared to that of the siAVIL transfected cells, by both gene ontology and Gene Set Enrichment analyses (example in FIGS. 7F and 7G).

The test system of data set [4] is RD rhabdomyosarcoma cells. Put plainly: Cell survival / crystal violet staining of RD cells. Particulars: 20 μM. The class given is cell-based. The protocol:
as §1
(§4) RH30 and RD are rhabdomyosarcoma cells. MSC is mesenchymal stem cells, as a non-cancer control.

Data set [5] concerns RH30 rhabdomyosarcoma cells. Kind of data set: Cell survival / crystal violet staining of RH30 cells. The class given is cell-based. Conditions: 20 μM. The method, then: as §1, §4
In data set [6] the target is T1, advillin recombinant protein (AVIL) (Homo sapiens, UniProt O75366).
T1 construct: MBP (N, cleaved yes); made in house; host or cells: E. coli BL21 (DE3)
T1 sequence (O75366 1-819): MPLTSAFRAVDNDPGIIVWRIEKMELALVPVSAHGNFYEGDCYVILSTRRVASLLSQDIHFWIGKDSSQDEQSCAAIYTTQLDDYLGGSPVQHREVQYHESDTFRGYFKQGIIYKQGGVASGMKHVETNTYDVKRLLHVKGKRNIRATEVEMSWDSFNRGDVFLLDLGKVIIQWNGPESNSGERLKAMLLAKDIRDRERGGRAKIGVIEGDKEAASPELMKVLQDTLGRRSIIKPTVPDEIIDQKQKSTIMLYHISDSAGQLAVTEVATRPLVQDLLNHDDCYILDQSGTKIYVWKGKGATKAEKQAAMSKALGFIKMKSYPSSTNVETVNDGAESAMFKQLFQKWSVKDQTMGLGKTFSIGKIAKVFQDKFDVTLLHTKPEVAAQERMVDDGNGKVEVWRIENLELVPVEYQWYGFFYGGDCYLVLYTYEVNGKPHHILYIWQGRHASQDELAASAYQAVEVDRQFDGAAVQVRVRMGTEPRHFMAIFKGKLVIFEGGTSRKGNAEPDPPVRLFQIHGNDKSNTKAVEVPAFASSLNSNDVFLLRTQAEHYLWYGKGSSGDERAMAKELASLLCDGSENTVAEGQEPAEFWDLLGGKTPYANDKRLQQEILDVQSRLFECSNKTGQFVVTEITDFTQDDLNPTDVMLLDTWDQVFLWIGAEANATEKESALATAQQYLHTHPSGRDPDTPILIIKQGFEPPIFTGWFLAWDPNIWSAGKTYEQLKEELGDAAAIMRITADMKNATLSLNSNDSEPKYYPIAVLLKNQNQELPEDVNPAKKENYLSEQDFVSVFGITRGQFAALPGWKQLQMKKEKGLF
Put plainly: Thermal shift assay. The class given is binding. Particulars: for binding with advillin recombinant protein: thermal shift assay. The protocol:
Protein purification. The sequence for human Advillin (AVIL) was cloned into the pMAL-c4x vector. The corresponding plasmid was transformed into BL21 (DE3) cells. Expression of MBP-AVIL was induced at OD600≈0.7 by the addition of 1 mM IPTG, and continued for 18 hrs at 23° C. Harvested cells were subsequently resuspended in 20 mM Tris-HCl pH 7.4, 200 mM NaCl, 1 mM EDTA, 1 mM DTT (Wash Buffer), supplemented with Complete Protease Inhibitor Cocktail (Roche), lysed in Emulsiflex C3 (AVESTIN) and cell debris was removed by centrifugation. MBP-AVIL was immobilized on Amylose Resin (New England BioLabs) followed by extensive washing (>50 column volumes) with Wash Buffer. Protein was eluted with Wash Buffer supplemented with 10 mM Maltose. After overnight incubation with TEV protease, MBP-tag was removed by size exclusion on HiLoad 16/600 Superdex 200 pg columns, previously equilibrated to 20 mM HEPES, pH 7.4, 50 mM NaCl, 1 mM DTT (Protein Buffer). Recombinant AVIL was flash-frozen in liquid nitrogen and stored in −80° C.
Thermal shift assay. SYPRO Orange (ThermoFisher Scientific) was added to 0.5 mg/ml AVIL (in Protein Buffer) in a 1:4500 ratio. 2.5 uL increasing concentrations of candidate compounds were added to 22.5 μL of AVIL/SYPRO Orange mixture on a 96 well plate (10% final concentration of DMSO). Protein unfolding was measured in a CFX96 qPCR (Bio-Rad) instrument with 0.2° C./15 sec steps, over the range of 20-90° C.

Data set [7] relates to MSC mesenchymal stem cells (non-cancer control). Kind of data set: Cell survival / crystal violet staining of MSC cells. The class given is cell-based. Conditions: 20 μM.
Excerpt: as §4

For data set [8], the system named is U87 cells. Kind of data set: Microarray analysis of U87 cells treated with compounds (gene ontology, GSEA). The data set is classed as cell-based, human. Particulars: gene set downregulated by siAVIL. The method, then:
as §3

For data set [9], the system named is glioblastoma cells (U87). Kind of data set: IC50 for inhibiting cell growth in glioblastoma cells (U87). The data set is classed as cell-based, human. Particulars: inhibition of cell growth. The protocol: as §1, §2
Setting [10] is: three intra-tumor injections with two day intervals, versus solvent control, at harvest.

Take `Nc1nccc(N2CCCC(CO)(CCCc3ccccc3)C2)n1` (stereo not shown) [Compound A]: in [1], the “IC50 values in GBM lines compared to astrocytes” value is recorded as “significantly different IC50 values”. Besides, the IC50 in data set [2] (Homo sapiens, Astrocyte) turned out to be 55 µM; in data set [9] (Homo sapiens) it was 9 µM. The “side effect in the animals” value in data set [3] (three injections) is reported as “did not observe any obvious side effect”. The tumor volume entry in data set [3] (setting [10]) is reported as “significantly smaller”. For the same compound, the tumor weight entry in [3] (setting [10]) is on record as “significantly smaller”. Further, the “effect on RD cells” value in data set [4] is “most if not all of the RH30 and RD cells were wiped out”. Moreover, in data set [5], the “effect on RH30 cells” value is “most if not all of the RH30 and RD cells were wiped out”. Further, the “melting temperature (Tm) shift of AVIL protein” value in [6] (increasing concentrations of compound) is reported as “dose-dependent melting temperature (Tm) shift”. Also, the “binding with advillin recombinant protein” value (from here on “binding”) in [6] is “confirmed binding”. Besides, the “effect on MSC cells” value in data set [7] was “no significant effect”. Moreover, in data set [8], the GSEA enrichment score entry is “highest GSEA enrichment score”.
Consider `c1ccc(CCC2CCN(CC3[C@H]4CNC[C@@H]34)CC2)cc1` (stereo partly shown) [Compound B], for which the “IC50 values in GBM lines compared to astrocytes” value in data set [1] was “significantly different IC50 values”. In data set [6], the “binding” value is “confirmed binding”.
`CN(Cc1ccc(Oc2ccccc2)cc1)C(=O)C1C[C@@H](O)CN1` (stereo partly shown) [Compound C]: the “IC50 values in GBM lines compared to astrocytes” value in data set [1] was “significantly different IC50 values”. In data set [6], the “binding” value is on record as “confirmed binding”.
For the compound `Cc1nccc(N2CCCC(CO)(CCCc3ccccc3)C2)n1` (stereo not shown) [Compound I], the concentration for half-maximal inhibition (IC50) turned out to be 80 µM in data set [2] (Homo sapiens, Astrocyte) and 19 µM in data set [9] (Homo sapiens).
For `Nc1cc(N2CCC(CO)(CCCc3ccccc3)CC2)nc(N)n1` [D] the same measures were 51 µM and 2.5 µM.
For `Nc1nccc(N2CCCC(CCc3ccccc3)C2)n1` (stereo not shown) [E] the same measures were 30 µM and 1 µM.
As for `Nc1nccc(N2CCC(CO)(CCCc3ccccc3)CC2)n1` [F], the IC50 in [2] (Homo sapiens, Astrocyte) is 28 µM; in [9] (Homo sapiens), 4 µM.
For `Nc1cc(N2CCCC(CO)(CCCc3ccccc3)C2)nc(N)n1` (stereo not shown) [G] the same measures were greater than 80 µM and 10 µM.
Consider `Nc1cc(N2CCCC(CO)(CCCc3ccccc3)C2)nc(N)n1` (stereo not shown) [H], for which the IC50 came out at 59 µM in data set [2] and 8 µM in data set [9].
For the compound `Nc1cc(N2CCCC(CO)(CCCc3ccccc3)C2)ncn1` (stereo not shown) [J], the IC50 in [2] (Homo sapiens, Astrocyte) was greater than 80 µM; in data set [9] (Homo sapiens), 20 µM.
Taken in the same sequence, the figures for `Nc1cc(N2CCCC(CCCc3ccccc3)(C(=O)O)C2)nc(N)n1` (stereo not shown) [K] were 34 µM and 39 µM.
For the compound `CCCC1(CO)CCCN(c2cc(N3CCN(C)CC3)nc(N)n2)C1` (stereo not shown) [L], the IC50 is greater than 80 µM in data set [2] (Homo sapiens, Astrocyte) and greater than 80 µM in [9] (Homo sapiens).

A word on the IC50: it is the concentration that inhibits the measured activity by half. Read a high IC50 as weaker potency.
